# Tests used:
# [1] = Surface phosphorus content of pamidronate-treated steel by SEM and EDAX; format: physicochemical
# [2] = test system: rat A10 arterial smooth muscle cells; test: In vitro transduction of A10 cells by adenovirus GFP tethered to steel stents/rods; format: cell-based
# Method: A type 5 adenovirus vector encoding GFP was used in this experiment. Stainless steel stents were incubated with amino-pamidronate, SPDP and anti-adenovirus knob F(ab)′2 antibody; amino-pamidronate and SPDP; amino-pamidronate only; or a stent only, without modification. The specific anti-adenovirus knob F(ab′)2 bound stents were incubated in the ad-GFP solution for 1 hour at 37 C. The virus loading in the incubation pool was 1×10^8 pfu/stent for all groups. The stents were then removed from the virus pool and rinsed with PBS followed by overnight washing. Images obtained by atomic force microscopy confirmed that high levels of vector immobilization could be achieved by this method.
# The virus binding efficacy was evaluated in vitro using rat A10 arterial smooth muscle cells. A cell suspension of 5×10^4 A10 cells per ml of M199 medium was prepared with 10% FBS and 1% penicillin/streptomycin. The stent was rinsed with M199 medium once and equilibrated in the M199 medium at 37 C. for 10 minutes in a 6 well culture plate. The medium from the wells was aspirated, holding the stents, and 2 ml cell suspension was added to each well. Cell transduction was observed by fluorescence microscopy using a FITC filter. […] 90% of cells with adenovirus GFP anti-the antibody bound stent were transduced. […] Consequently, transduction efficiency is enhanced in vitro in antibody-bound stents compared to control stents.
# A10 smooth muscle cells were transduced with SPDP-anti-adenovirus knob F(ab)′2 antibody-adenovirus GFP bound stainless steel rods, and pretreated with either 1.5 M pamidronate, 3.0 M pamidronate or 5.0 M pamidronate. Cell transduction was proportional to the pamidronate concentration used in a reaction. […] Accordingly, A10 cell transduction efficiency is related to pamidronate concentration used in the reaction.
smiles,measurement,setting,value
"NCCC(O)(P(=O)(O)O)P(=O)(O)O [pamidronate, 3-amino-hydroxypropylidene-1,1-bisphosphonic acid]",phosphorus percent by weight,"[1]; stainless steel rod after reaction with pamidronate at pH 5, EDAX",13%
same,phosphorus percent by weight,"[1]; stainless steel rod after reaction with pamidronate at pH 7, EDAX",1%
same,cell transduction (qualitative),[2]; pretreated with 5 M pamidronate,did not show much increase in cell transduction
same,cell transduction (qualitative),[2]; steel rods pretreated with 1.5 M pamidronate,much less cell transduction
same,cell transduction (qualitative),[2]; steel rods pretreated with 3.0 M pamidronate,optimal

# Reference: patent US7589070B2, “Surface modification for improving biocompatibility” (The Children's Hospital of Philadelphia, priority 2001, dated 2009)
